Test results reported in publication PMC4077815, “Modulation of Phosphorylation of Tocopherol and Phosphatidylinositol by hTAP1/SEC14L2-Mediated Lipid Exchange” (PLoS ONE, 2014).

Legend:
[1] = biological target: T1, recombinant PI3Kγ/p110γ (phosphatidylinositol-3-kinase gamma) (Homo sapiens, UniProt P48736); assay: [γ-32P]-ATP phosphatidylinositol kinase assay, TLC; type: biochemical; conditions: stimulator; no hTAP1; phosphatidylinositol 100 µM, ATP 20 µM, 4 mM MgCl2, pH 7.4, 37 °C
T1 construct: gene PIK3CG; no regulatory subunit mentioned

[2] = biological target: T2, recombinant hTAP1 (human tocopherol associated protein 1, hSEC14L2) (Homo sapiens, UniProt O76054); assay: isoelectric point mobility shift competition with phosphatidylinositol; type: binding; set-up: gene SEC14L2; N-terminal His tag, expressed in and purified from Escherichia coli; conditions: read-out: 50% displacement of PI
[3] = biological target: T2, recombinant hTAP1 (human tocopherol associated protein 1, hSEC14L2); set-up: gene SEC14L2; conditions: competitor of phosphatidylinositol; native isoelectric focusing gel
[4] = biological target: recombinant phosphatidylinositol-3-kinase gamma PI3Kγ/p110γ (UniProt P48736)
Chain of recombinant phosphatidylinositol-3-kinase gamma PI3Kγ/p110γ (P48736 whole entry): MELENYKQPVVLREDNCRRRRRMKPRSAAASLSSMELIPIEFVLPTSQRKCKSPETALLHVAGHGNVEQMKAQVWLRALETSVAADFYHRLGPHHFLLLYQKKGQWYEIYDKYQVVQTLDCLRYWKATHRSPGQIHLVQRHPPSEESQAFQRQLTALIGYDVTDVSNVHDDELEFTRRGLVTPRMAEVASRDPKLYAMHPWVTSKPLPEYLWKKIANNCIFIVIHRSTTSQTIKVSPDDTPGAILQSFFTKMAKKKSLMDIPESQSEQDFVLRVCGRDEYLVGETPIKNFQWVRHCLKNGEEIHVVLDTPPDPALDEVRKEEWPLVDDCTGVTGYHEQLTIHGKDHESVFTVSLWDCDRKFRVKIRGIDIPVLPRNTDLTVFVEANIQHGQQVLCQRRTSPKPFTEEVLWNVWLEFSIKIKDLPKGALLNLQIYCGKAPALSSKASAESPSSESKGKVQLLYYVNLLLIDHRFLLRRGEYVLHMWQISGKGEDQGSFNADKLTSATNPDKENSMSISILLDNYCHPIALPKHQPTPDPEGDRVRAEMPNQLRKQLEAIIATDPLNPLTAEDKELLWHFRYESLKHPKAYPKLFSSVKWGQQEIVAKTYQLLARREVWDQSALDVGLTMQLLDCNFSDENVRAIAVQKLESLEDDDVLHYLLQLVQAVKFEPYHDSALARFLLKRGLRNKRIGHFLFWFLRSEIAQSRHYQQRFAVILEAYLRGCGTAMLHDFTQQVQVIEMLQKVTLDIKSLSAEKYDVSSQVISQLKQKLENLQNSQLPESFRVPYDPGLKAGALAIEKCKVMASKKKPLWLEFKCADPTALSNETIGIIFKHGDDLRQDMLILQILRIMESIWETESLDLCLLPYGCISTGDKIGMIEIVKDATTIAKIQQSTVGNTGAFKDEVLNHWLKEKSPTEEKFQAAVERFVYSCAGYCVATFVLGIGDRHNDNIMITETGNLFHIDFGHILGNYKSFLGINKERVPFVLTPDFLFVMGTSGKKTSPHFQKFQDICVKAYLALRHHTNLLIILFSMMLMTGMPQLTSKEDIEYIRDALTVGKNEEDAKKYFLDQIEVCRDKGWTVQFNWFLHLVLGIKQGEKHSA

T1 sequence (P48736 whole entry): as above
T2 sequence (O76054 whole entry): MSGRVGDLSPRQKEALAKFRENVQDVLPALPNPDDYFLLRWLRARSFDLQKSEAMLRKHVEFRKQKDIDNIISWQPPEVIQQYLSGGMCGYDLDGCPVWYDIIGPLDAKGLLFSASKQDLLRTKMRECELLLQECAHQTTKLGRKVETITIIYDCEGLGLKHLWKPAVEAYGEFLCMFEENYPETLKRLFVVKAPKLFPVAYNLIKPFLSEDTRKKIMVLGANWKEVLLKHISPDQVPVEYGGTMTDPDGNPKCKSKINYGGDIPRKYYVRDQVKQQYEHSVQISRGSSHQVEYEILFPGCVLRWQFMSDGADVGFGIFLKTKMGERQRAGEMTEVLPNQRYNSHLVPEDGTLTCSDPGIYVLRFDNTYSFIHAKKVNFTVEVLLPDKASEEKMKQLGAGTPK
Chain of recombinant human tocopherol associated protein 1 (O76054 whole entry): as above

| Compound | % of control activity at 50 μM [1] | also measured |
| --- | --- | --- |
| Cc1cc(O)cc2c1O[C@](C)(CCC[C@H](C)CCC[C@H](C)CCCC(C)C)CC2 [RRR-δ-tocopherol] | All four tocopherols stimulated PI3Kγ activity with similar efficiency (Figure 4A) | – |
| Cc1c(C)c2c(c(C)c1O)CC[C@@](C)(CCC[C@H](C)CCC[C@H](C)CCCC(C)C)O2 [RRR-α-tocopherol] | All four tocopherols stimulated PI3Kγ activity with similar efficiency (Figure 4A) | IC50 [2]: 50 µM |
| Cc1c(C)c2c(c(C)c1OP(=O)(O)O)CC[C@@](C)(CCC[C@H](C)CCC[C@H](C)CCCC(C)C)O2 [α-tocopheryl phosphate] | αTP stimulated PI3Kγ stronger than αT (Figure 4B) | isoelectric point mobility shift competition with phosphatidylinositol [3]: the competition with αTP was slightly weaker (Figure 3B) |
| recombinant human tocopherol associated protein 1 (from UniProt O76054 1-403) (natural protein) | – | in vitro PI3Kγ activity (phosphorylation of phosphatidylinositol with [γ-32P]-ATP, TLC) in the presence of recombinant hTAP1, relative to the control without hTAP1 [4]: 38% |
| Cc1c(O)cc2c(c1C)O[C@](C)(CCC[C@H](C)CCC[C@H](C)CCCC(C)C)CC2 [RRR-γ-tocopherol] | All four tocopherols stimulated PI3Kγ activity with similar efficiency (Figure 4A) | – |
| Cc1cc(O)c(C)c2c1O[C@](C)(CCC[C@H](C)CCC[C@H](C)CCCC(C)C)CC2 [RRR-β-tocopherol] | All four tocopherols stimulated PI3Kγ activity with similar efficiency (Figure 4A) | – |
